Where a name gives a salt, the structure may show the parent alone.
What was measured:
[1] = target: β₁-Rezeptoren (Rezeptoren des Herzmuskels) (Homo sapiens, UniProt P08588); assay: beta-1 adrenergic receptor blockade (no method described); conditions: qualitative statement
[2] = tested on: Augeninnendruck; assay: lowering of intraocular pressure on local application (no method described); assay type: in vivo; conditions: lokale Applikation, qualitative statement
[3] = target: β₂-Rezeptoren (Rezeptoren der glatten Muskulatur) (Homo sapiens, UniProt P07550); assay: beta-2 adrenergic receptor blockade (no method described); conditions: qualitative statement
Chain of β₂-Rezeptoren (Rezeptoren der glatten Muskulatur) (P07550 whole entry): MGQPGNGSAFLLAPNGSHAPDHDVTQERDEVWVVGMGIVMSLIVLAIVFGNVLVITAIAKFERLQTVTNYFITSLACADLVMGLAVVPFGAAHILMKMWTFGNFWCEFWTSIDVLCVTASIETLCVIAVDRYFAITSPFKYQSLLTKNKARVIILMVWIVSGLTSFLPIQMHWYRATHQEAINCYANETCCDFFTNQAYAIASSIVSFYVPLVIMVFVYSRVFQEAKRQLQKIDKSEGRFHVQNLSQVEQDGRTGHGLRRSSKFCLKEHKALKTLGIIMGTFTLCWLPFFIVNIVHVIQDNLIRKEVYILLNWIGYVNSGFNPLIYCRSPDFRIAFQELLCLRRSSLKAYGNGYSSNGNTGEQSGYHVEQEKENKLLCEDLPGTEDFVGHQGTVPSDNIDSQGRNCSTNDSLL

[4] = tested on: Blutgefäße; assay: vasodilating effect (no method described); conditions: qualitative statement, enantiomers
[5] = tested on: Blutgefäße; conditions: as described in EP-B 14 951; cited from earlier work
[6] = listed as erfindungsgemäße Substanz

Chain of β₁-Rezeptoren (Rezeptoren des Herzmuskels) (P08588 whole entry): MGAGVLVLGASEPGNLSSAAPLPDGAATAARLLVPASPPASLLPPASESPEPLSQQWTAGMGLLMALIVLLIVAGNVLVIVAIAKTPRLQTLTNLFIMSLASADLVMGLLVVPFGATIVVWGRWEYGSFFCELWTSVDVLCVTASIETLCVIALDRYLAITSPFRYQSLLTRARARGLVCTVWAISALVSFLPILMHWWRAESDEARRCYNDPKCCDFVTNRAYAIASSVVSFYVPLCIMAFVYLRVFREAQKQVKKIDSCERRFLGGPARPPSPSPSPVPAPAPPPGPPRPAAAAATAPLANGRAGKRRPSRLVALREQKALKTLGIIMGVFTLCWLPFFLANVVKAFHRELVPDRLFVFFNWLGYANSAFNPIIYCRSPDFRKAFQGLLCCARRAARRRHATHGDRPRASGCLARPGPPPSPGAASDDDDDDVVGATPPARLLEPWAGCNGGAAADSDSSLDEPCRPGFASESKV

Row | β₁-blockierende Wirkung [1] | β₂-blockierende Wirkung [3] | Selektivität β₁ gegenüber β₂ (cardioselektiv) ([1]; β₁ versus β₂) | β₁-blockierende Wirkung ([1]; listed as Beispiel 8 b) | β₁-blockierende Wirkung [1, 6] | β₂-blockierende Wirkung ([3]; listed as Beispiel 8 b) | β₂-blockierende Wirkung [3, 6] | SMILES | augeninnendrucksenkende Wirkung [2] | vasodilatierende / blutgefäßerweiternde Wirkung [4] | vasodilatierende Eigenschaften [5] | augeninnendrucksenkende Wirkung [2, 6]
1 | keine β₁-blockierende | keine β₂-blockierende |  |  |  |  |  | COc1ccccc1OCCNC[C@@H](O)COc1cccc2[nH]nnc12 (single isomer, unassigned) [R-Enantiomere] | augendrucksenkenden Wirkung |  |  | 
2 | praktisch die gesamte |  |  |  |  |  |  | COc1ccccc1OCCNC[C@H](O)COc1cccc2[nH]nnc12 (single isomer, unassigned) [S-Enantiomere, S-(-)-1-(Benztriazol-4-yloxy)-3-(2-(2-methoxyphenoxy)-ethyl-amino)-2-propanol-hydrochlorid] |  | blutgefäßerweiternde |  | 
3 |  |  | cardioselektiv | vorwiegend eine β₁-blockierende Wirkung | β₁-blockierende Wirkung besitzt | nicht oder nur wenig beeinflußt | nur sehr geringe β₂-blockierende Wirkung | COc1ccccc1OCCNCC(O)COc1cccc2[nH]nnc12 (racemic) [racemische Substanz, 1-(Benztriazol-4-yloxy)-3-(2-(2-methoxyphenoxy)-ethylamino)-2-propanol] | in extrem geringer Konzentration |  | vasodilatierende Eigenschaften | im gleichen Maße vorhanden ist wie bei üblichen bekannten β-blockierenden Verbindungen

Reference: EP0231444A2, “Optically active isomers and racemate of 1-(benztriazol-4-yloxy)-3-[2-(2-methoxyphenoxy)-ethylamino]-2-propanol, process for their preparation as well as their use as medicaments” (BOEHRINGER MANNHEIM GMBH, priority 1985, dated 1987)
